Data taken from ChEMBL document CHEMBL4507268 (2021).

Key:
Conditions in all cases: Compound concentration 1.0 uM
[1] = target: 5'-AMP-activated protein kinase catalytic subunit alpha-1 (Homo sapiens) (UniProt Q13131)
[2] = target: Serine/threonine-protein kinase B-raf (Homo sapiens) (UniProt P15056)
[3] = target: Epithelial discoidin domain-containing receptor 1 (Homo sapiens) (UniProt Q08345)
[4] = target: Hepatocyte growth factor receptor (Homo sapiens) (UniProt P08581)
[5] = target: Mitogen-activated protein kinase kinase kinase 11 (Homo sapiens) (UniProt Q16584)
Mitogen-activated protein kinase kinase kinase 11 (Homo sapiens), sequence (Q16584 whole entry, looked up): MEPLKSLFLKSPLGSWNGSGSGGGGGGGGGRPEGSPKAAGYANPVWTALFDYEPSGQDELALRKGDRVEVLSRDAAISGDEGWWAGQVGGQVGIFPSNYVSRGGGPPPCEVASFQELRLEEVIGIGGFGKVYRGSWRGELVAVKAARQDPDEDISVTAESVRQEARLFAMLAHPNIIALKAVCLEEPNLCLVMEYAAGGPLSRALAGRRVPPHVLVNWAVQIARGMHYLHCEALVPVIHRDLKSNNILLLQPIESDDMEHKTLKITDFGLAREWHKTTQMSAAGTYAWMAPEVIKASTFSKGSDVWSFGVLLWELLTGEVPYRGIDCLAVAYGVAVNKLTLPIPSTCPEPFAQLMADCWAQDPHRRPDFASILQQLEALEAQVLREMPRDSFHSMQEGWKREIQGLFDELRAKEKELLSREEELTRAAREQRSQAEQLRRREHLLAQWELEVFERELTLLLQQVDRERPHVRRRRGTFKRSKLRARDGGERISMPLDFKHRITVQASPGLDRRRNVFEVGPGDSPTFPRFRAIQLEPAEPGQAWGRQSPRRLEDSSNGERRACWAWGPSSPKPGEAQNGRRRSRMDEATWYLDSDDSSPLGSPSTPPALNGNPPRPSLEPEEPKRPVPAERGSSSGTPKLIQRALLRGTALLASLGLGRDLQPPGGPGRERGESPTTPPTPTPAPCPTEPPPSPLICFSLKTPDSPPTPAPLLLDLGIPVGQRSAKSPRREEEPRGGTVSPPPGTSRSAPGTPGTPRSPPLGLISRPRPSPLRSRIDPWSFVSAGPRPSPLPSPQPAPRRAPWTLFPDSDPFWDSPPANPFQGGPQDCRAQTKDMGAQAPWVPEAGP

[6] = target: T1, Serine/threonine-protein kinase Nek11 (Homo sapiens) (UniProt Q8NG66)
T1 sequence (whole entry): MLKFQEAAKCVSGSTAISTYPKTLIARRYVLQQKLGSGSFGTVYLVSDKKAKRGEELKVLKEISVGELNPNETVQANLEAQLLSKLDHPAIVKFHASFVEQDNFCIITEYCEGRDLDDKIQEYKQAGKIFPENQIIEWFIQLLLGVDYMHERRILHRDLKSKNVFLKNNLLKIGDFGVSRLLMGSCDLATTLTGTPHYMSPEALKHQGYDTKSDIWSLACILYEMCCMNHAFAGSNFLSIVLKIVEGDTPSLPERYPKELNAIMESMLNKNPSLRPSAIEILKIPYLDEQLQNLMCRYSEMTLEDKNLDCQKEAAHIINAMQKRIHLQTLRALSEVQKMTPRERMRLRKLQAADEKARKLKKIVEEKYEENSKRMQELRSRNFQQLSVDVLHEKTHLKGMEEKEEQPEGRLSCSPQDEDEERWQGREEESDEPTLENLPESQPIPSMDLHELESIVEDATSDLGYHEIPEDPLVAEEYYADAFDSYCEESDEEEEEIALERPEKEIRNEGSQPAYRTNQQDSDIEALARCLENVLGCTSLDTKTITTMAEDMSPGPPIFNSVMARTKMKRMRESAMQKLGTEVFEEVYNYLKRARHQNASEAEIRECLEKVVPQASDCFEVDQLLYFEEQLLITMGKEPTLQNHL

[7] = target: T2, Protein kinase C epsilon type (Homo sapiens) (UniProt Q02156)
T2 sequence (whole entry): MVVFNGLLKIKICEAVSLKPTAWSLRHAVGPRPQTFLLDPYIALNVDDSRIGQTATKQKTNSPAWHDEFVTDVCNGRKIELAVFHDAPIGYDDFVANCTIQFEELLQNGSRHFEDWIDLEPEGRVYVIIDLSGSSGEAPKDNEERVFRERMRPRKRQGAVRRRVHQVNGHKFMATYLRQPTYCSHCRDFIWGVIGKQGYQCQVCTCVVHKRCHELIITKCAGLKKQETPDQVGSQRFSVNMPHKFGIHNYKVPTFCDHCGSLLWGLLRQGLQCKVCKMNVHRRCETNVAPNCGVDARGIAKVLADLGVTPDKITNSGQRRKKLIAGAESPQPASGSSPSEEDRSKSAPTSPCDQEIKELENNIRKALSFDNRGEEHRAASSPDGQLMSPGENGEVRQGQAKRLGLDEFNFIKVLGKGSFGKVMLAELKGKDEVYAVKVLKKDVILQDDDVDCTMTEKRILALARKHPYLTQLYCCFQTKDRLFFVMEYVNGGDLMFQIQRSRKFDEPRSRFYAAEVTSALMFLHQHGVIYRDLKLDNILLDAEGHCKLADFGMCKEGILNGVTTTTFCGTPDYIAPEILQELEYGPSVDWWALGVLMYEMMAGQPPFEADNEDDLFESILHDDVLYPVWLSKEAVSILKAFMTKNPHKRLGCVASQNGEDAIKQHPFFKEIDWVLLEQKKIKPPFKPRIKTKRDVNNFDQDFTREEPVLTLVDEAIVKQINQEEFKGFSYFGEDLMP

[8] = target: T3, Receptor-interacting serine/threonine-protein kinase 1 (Homo sapiens) (UniProt Q13546)
T3 sequence (whole entry): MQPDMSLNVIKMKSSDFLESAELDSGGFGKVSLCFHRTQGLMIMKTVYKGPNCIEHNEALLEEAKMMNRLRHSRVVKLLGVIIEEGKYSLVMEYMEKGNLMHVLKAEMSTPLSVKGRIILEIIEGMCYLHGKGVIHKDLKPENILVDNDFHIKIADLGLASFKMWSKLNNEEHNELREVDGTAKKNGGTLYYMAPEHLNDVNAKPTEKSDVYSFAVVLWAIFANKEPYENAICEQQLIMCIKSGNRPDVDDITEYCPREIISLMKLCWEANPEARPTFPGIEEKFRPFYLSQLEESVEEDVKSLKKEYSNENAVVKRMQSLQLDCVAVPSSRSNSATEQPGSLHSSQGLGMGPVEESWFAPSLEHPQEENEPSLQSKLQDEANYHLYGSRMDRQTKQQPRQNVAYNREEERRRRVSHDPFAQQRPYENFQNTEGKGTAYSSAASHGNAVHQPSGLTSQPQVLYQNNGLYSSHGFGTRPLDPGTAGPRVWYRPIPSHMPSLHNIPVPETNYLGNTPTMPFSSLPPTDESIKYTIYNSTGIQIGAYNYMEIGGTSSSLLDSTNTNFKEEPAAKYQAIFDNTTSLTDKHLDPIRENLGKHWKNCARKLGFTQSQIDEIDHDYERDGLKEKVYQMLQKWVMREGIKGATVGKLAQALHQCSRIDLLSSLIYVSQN

[9] = target: T4, Tyrosine-protein kinase ZAP-70 (Homo sapiens) (UniProt P43403)
T4 sequence (whole entry): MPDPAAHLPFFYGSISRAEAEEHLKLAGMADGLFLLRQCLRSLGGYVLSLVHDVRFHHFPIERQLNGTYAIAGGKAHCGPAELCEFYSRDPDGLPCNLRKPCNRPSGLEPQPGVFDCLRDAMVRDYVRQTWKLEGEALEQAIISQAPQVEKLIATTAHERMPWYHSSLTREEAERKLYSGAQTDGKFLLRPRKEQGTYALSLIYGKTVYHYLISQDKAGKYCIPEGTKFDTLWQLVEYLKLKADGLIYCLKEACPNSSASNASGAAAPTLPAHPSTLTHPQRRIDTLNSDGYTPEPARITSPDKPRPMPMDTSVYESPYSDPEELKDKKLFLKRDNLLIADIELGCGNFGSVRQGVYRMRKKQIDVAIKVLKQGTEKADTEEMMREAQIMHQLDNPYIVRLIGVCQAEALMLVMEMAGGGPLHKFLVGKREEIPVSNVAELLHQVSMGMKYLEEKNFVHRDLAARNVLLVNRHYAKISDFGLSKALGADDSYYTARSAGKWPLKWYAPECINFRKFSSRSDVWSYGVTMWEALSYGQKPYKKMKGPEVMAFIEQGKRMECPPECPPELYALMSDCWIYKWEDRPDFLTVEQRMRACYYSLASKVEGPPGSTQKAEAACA

Measured: % residual kinase activity

Epithelial discoidin domain-containing receptor 1 (Homo sapiens), sequence (Q08345 whole entry, the tested form may be a part): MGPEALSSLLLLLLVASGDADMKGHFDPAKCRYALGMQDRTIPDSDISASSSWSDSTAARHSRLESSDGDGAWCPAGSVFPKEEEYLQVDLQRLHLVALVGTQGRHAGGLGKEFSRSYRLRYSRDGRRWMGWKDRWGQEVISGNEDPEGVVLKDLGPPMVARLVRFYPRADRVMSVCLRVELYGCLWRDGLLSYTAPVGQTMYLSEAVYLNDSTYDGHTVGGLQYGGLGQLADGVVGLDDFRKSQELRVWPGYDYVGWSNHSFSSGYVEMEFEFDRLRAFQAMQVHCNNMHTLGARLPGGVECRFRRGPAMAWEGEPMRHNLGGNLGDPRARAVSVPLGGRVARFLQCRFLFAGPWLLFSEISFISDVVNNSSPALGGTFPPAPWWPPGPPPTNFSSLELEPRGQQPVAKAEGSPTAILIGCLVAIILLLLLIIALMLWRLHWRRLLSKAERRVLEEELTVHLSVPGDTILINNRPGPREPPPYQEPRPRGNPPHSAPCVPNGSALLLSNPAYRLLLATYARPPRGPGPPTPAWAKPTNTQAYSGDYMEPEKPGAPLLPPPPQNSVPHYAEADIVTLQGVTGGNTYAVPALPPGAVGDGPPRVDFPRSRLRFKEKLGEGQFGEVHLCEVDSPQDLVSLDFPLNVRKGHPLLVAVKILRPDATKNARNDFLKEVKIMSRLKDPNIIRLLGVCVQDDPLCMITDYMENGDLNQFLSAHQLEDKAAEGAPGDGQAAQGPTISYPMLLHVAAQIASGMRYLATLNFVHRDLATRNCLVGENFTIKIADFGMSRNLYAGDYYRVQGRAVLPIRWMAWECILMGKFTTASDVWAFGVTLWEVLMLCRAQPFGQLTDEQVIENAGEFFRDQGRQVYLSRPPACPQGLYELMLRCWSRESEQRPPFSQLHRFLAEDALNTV
Hepatocyte growth factor receptor (Homo sapiens), sequence (P08581 whole entry): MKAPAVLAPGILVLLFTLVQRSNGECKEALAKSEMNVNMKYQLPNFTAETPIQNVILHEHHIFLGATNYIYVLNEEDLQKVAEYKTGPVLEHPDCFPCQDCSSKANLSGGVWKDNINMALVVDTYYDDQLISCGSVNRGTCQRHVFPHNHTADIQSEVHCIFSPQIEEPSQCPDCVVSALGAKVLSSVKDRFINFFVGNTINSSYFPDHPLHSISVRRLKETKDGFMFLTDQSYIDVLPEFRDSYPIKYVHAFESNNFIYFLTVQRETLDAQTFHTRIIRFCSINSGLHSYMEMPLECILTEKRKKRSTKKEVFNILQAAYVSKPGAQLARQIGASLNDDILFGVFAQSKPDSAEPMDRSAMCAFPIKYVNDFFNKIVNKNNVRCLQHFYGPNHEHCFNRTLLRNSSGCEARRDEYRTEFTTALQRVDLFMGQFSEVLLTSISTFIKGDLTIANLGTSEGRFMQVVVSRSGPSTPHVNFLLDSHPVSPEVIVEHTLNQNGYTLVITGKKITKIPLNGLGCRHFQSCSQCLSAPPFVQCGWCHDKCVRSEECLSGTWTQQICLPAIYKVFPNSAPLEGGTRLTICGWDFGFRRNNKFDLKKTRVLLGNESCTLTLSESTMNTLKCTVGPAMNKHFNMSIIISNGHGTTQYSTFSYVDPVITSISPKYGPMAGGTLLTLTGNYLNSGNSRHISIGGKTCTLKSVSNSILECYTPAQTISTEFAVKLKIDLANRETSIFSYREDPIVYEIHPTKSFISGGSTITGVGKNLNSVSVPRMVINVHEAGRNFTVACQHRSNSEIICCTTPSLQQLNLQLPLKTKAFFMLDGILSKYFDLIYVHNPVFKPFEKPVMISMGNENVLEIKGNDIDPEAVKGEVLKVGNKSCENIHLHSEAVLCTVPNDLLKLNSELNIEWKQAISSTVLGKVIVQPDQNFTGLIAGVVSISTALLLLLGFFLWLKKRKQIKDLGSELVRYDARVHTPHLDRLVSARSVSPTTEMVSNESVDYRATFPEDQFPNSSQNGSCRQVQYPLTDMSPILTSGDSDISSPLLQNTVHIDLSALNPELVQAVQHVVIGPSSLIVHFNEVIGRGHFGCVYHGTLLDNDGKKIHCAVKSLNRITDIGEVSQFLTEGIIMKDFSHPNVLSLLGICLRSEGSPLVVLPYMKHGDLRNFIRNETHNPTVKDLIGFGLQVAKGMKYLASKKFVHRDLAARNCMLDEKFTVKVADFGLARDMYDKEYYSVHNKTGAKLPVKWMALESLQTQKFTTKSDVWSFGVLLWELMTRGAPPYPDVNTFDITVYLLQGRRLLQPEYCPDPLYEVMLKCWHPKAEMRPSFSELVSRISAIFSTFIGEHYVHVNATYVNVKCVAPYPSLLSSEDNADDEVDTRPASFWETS
Serine/threonine-protein kinase B-raf (Homo sapiens), sequence (P15056 whole entry, the tested form may be a part): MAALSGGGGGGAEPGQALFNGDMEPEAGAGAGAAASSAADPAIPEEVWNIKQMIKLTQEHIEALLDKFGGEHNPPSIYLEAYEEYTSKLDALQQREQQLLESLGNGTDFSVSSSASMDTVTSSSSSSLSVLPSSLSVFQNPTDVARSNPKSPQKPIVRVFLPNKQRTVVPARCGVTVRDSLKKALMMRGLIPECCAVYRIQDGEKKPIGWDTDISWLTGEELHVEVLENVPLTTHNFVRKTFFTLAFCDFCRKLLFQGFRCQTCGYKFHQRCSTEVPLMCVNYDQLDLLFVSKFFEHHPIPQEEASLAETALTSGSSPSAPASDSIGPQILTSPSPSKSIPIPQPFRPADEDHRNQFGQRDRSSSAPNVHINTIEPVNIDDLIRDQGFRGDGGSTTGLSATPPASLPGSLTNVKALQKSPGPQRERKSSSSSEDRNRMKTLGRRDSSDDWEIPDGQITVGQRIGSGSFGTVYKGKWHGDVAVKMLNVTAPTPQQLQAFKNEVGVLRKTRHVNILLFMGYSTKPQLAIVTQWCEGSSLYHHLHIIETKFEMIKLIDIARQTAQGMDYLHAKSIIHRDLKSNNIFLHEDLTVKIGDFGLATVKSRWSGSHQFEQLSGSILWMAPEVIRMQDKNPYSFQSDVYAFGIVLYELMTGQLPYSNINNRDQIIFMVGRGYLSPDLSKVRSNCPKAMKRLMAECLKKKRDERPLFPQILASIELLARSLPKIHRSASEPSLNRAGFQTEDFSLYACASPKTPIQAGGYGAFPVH
5'-AMP-activated protein kinase catalytic subunit alpha-1 (Homo sapiens), sequence (Q13131 whole entry, looked up): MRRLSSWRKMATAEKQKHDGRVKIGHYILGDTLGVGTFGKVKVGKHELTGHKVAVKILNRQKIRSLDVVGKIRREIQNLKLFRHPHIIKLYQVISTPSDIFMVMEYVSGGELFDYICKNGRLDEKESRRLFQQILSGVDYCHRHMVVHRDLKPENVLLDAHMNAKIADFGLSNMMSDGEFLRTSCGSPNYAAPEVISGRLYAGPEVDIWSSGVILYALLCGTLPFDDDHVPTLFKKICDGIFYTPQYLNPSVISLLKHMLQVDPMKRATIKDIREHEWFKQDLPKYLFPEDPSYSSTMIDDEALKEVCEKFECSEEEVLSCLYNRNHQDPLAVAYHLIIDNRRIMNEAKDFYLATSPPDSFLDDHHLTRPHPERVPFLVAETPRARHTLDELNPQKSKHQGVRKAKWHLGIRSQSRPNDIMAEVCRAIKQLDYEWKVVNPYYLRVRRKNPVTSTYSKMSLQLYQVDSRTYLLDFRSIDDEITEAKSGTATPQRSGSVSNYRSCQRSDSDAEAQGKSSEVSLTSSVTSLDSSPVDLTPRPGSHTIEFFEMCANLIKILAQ

CN1CCN(c2cnc3c(C4CCN(C(=O)c5ccc(OC(F)(F)F)cc5N)CC4)ncnc3c2)CC1 [BAY-885]
inactive: [1] 101% | [2] 109% | [3] 100% | [4] 93% | [5] 112% | [6] 104% | [7] 104% | [8] 100% | [9] 108%
